Columns and labels:
[1] = rat, in vivo
Protocol: Methods: Rats were given an i.p. injection of XA 50 mg/kg and then sacrificed 30 minutes later by microwave irradiation. Brains were dissected and XA was assayed in 20 different regions of the brain.

XA transport system = assay: XA transport in differentiated NCB-20 cells; format: cell-based
Protocol: The cell culture was prepared by using a culture dish of NCB-20 cells at 80% confluence. The culture medium was removed and replaced with 10 ml of DMEM supplemented with 10% FCS. Cells were then detached and suspended by repeated passage of the medium through a 2 mm gauge needle. Cells were then counted in a hemocytometer. The final suspension was adjusted to a cell density of 3.10^4 cells/ml in DMEM medium supplemented with 10% FCS and 1 mM cAMP. Petri dishes were seeded with 2 ml of this suspension and incubated at 37° C. in a moisture-saturated CO2 atmosphere. Cells were used four days after inoculation.
The culture medium of 4-day NCB-20 cell cultures differentiated in cAMP was replaced by one of the buffer solutions described hereinabove (Krebs with or without Na^+, to respectively evaluate Na^+-dependent active transport and passive transport, which occurs mainly through diffusion) according to the type of experiment planned. Culture dishes were placed in a water bath at 37° C. for 10 minutes. The buffer was then replaced by the same buffer solution containing [^3H]-XA and XA at concentrations ranging from […]. [^3H]-XA was present at very low concentration and served only as a tracer of the cold (non-radiolabelled) XA. After 1 minute of incubation, the solutions were aspirated and the cells washed three times for 10 seconds with 1 ml of the same buffer (Krebs with or without Na^+), kept on ice. Active transport requires energy (ATP) and is markedly slowed at temperatures below 37° C. The washed cell layer was frozen in dishes then, the next day, distilled water was added to obtain a solution of cellular debris containing the intracellular radiolabel ([^3H]-XA). Freezing facilitated homogenization by repeated passage of the solution through a pipette. A 900 μl aliquot was added to scintillation fluid (Rotiszint®, 4 ml). The remainder of the solution was sampled to assay protein by the BCA method (Uptima). The radioactivity measured in the scintillation counter was converted by means of a suitable calibration curve into picomoles of XA taken up by the cells per mg of protein.
For each incubation time, transport was measured on nine dishes of NCB-20 cells with Na^+ and without Na^+. Ten different time points were studied: 0-10-30 seconds and 1, 2, 3, 5, 8, 10, 12 minutes. Four different experiments were carried out.
For each XA concentration, XA transport was measured on nine dishes of NCB-20 cells with Na^+ and nine dishes without Na^+. Seven different concentrations were tested: 1-5-12.5-25-50-100-200 μM. Four independent experiments were carried out.
Four milliliters of scintillator were added to the tubes containing 900 μl of the cell suspension obtained. The control tube contained 900 μl of doubly-distilled water, and the tubes used to measure specific activity contained 10 μl of the radioactive solutions used as reagent during the experiment and 890 μl of doubly-distilled water. The tubes were closed, vortexed and left overnight at 4° C. before being counted in the scintillation counter. This count measures intracellular radioactivity which is directly proportional to the quantity of XA that entered the cell through passive or active transport. To calculate the amount of active transport, passive transport (Krebs without Na^+) is simply subtracted from total transport (Krebs with Na^+).
Other endogenous molecules which might be transported by the XA transporter were tested. […] The results are shown in the histogram in FIG. 34 as the percentage entering the cells relative to transport in the presence of radiolabelled XA alone (=100%).

[2] = target: xanthurenic acid binding site(s); assay: [3H]-XA binding to synaptic membranes in the presence of copper ions; design: species or system rat; conditions: pH 6.5
[3] = system: xanthurenic acid binding site(s); assay: [3H]-XA binding to synaptic membranes, without ions; design: species or system rat
[4] = system: extracellular dopamine release in the PFC; assay: Microdialysis of dopamine, DOPAC and HVA in PFC after local XA; conditions: rat, in vivo
Protocol: • Animals: Adult male Wistar rats weighing 250 to 275 g were housed in pairs in plastic cages with a standard 7 a.m.–7 p.m. light cycle and free access to food and water. Animals studies were conducted in accordance with the requirements of the EEC directive of 24 Nov. 1986 (86/609/EEC). • Chemicals: XA, 6-OHDA hydrobromide, 2,4,5-trihydroxyphenylethylamine and desipramine were purchased from Sigma. NCS-486 was produced by the Laboratoire de Pharmacochimie of the CNRS in Strasbourg. • Surgical protocol: An L-shaped cannula with 4 mm tip (CMA 12, Carnegie, Sweden) was used for the experiments. The dialysis membrane, 500 μm in diameter, was made of polycarbonate-polyether with a 20 Kda cutoff. The probe guide was implanted in the PFC under stereotactic guidance. Animals were anesthetized with ketamine hydrochloride (150 mg/kg i.p.)
The experiments were carried out in conscious rats with and without induced lesions, 24 to 48 hours after surgical insertion of the microdialysis probe. The composition of the microdialysis medium was as follows: 147 mM NaCl; 1.2 mM CaCl2; 1.2 mM MgCl2; 4.0 mM KCl, pH 6.5. The dialysis rate was 1 μl/min (CMA 100 pump, Carnegie). Dialysates were collected in 20 minute fractions and stored immediately in liquid nitrogen pending analysis.
These compounds were analyzed by HPLC with electrochemical detection. The chromatographic system consisted of a 25 cm×4.6 mm C18 column maintained at a constant temperature of 30° C. The mobile phase was 50 mM NaH2PO4 containing 0.1 mM EDTA and 6% methanol, the pH of the solution was adjusted to 4.85.
Retrodialyzed XA concentrations were respectively 1 μM (black circles), 5 μM (black squares) and 20 μM (black triangles). XA was applied during a 20 minute dialysis. The results are expressed as the percentage of mean baseline dopamine release (determined on eight 20-min dialysis fractions prior to stimulation by XA) (FIG. 20).

[5] = read-out: IC50, two site binding model, first site
[6] = read-out: IC50, two site binding model, second site

In the case of `O=C(O)c1cc(O)c2cccc(O)c2n1` [XA, xanthurenic acid], the “Brain regions where XA accumulated” value [1] is reported as “accumulated primarily in the frontal and prefrontal cortex (PFC), temporal and parietal cortex, amygdala, dopaminergic nuclei and in the striatum”, the “increase of transport in the presence of sodium” value (XA transport system) is reported as “about 20%” and the Km (XA transport system; read-out: Km of intracellular transport) is reported as 105 µM. It also gave an IC50 [2, 5] of 1000 nM, an IC50 [2, 6] of 114000 nM and a Kd ([2]; read-out: Kd (saturation experiment)) of 7560 nM. For the same molecule, the “kob (observed association rate)” value ([3]; pH 7.4) was 0.53 ± 0.16 min⁻¹, the “time to binding equilibrium” value ([3]; pH 7.4) was 10 to 15 min and the Kd ([3]; pH 7.4, read-out: Kd (saturation experiment)) was 743 nM. The IC50 [3, 5] was 300 nM, the IC50 [3, 6] was 57000 nM and the Kd ([3]; read-out: Kd=koff/kon) was roughly 330 nM. For the same molecule, the “DOPAC release in PFC” value [4] was “decreased slightly”, the “HVA release in PFC” value [4] was “decreased slightly” and the “effect on dopamine release in PFC” value [4] was “had no effect on dopamine release”. The “increase of extracellular dopamine release in PFC” value [4] was “approximately 250%”.

Reference: patent US7122326B2 (Universite Louis Pasteur, priority 2001, dated 2006)
